The values that follow come from patent publication US20170209445A1, “KINASE INHIBITORS” (Respivert Limited, priority 2014, published 2017).

The test system of this assay is PBMCs. The assay is described as follows: LPS-induced IL-8 release in PBMC cells. The note with it: Homo sapiens, LPS-stimulated PBMCs, read-out: IC50 Values for Inhibition of Cytokine Release PBMCs IL-8. Format: cell-based. As to the method: Peripheral blood mononuclear cells (PBMCs) from healthy subjects are separated from whole blood using a density gradient (Lymphoprep, Axis-Shield Healthcare). The PBMCs are seeded in 96 well plates and treated with compounds at the desired concentration for 2 hours before addition of 1 ng/mL LPS (Escherichia Coli 0111:B4 from Sigma Aldrich) for 24 hours under normal tissue culture conditions (37° C., 5% CO2). The supernatant is harvested for determination of IL-8 and TNFα concentrations by sandwich ELISA (Duo-set, R&D systems) and read on the fluorescence microplate reader (Varioskan® Flash, ThermoFisher Scientific).

On to `COc1cc(Nc2ncc3cc(-c4cc(C(=O)Nc5cc(C(C)(C)C)cc(NS(C)(=O)=O)c5OC)ccc4C)ccc3n2)ccc1C(=O)NCC1CCN(C)CC1` [14(ai), 4-((6-(5-((5-(tert-Butyl)-2-methoxy-3-(methylsulfonamido)phenyl)carbamoyl)-2-methylphenyl)quinazolin-2-yl)amino)-2-methoxy-N-((1-methylpiperidin-4-yl)methyl)benzamide], for which the IC50 is 7.9 nM.
The value for `COc1c(NC(=O)c2ccc(C)c(-c3ccc4nc(Nc5cccc(P(C)(C)=O)c5)ncc4c3)c2)cc(C(C)(C)C)cc1NS(C)(=O)=O` [14(h), N-(5-(tert-Butyl)-2-methoxy-3-(methylsulfonamido)phenyl)-3-(2-((3-(dimethylphosphoryl)phenyl)amino)quinazolin-6-yl)-4-methylbenzamide] was 9.4 nM; that for `COc1cc(Nc2ncc3cc(-c4cc(C(=O)Nc5cc(C(C)(C)C)cc(NS(C)(=O)=O)c5OC)ccc4C)ccc3n2)ccc1C(=O)NCCn1ccnc1C` [14(ae), 4-((6-(5-((5-(tert-Butyl)-2-methoxy-3-(methylsulfonamido)phenyl)carbamoyl)-2-methyl-phenyl)quinazolin-2-yl)amino)-2-methoxy-N-(2-(2-methyl-1H-imidazol-1-yl)ethyl)benzamide] was 6.5 nM; that for `COc1cc(Nc2ncc3cc(-c4cc(C(=O)Nc5cc(C(C)(C)C)cc(NS(C)(=O)=O)c5OC)ccc4C)ccc3n2)ccc1C(=O)NCCN1CCOCC1` [14(am), 4-((6-(5-((5-(tert-Butyl)-2-methoxy-3-(methylsulfonamido)phenyl)carbamoyl)-2-methylphenyl)quinazolin-2-yl)amino)-2-methoxy-N-(2-morpholinoethyl)benzamide] was 19.5 nM.
The result for `COCCOCCOCCOc1cc(F)cc(Nc2ncc3cc(-c4cc(C(=O)Nc5cc(C(C)(C)C)cc(NS(C)(=O)=O)c5OC)ccc4C)ccc3n2)c1` [14(l), N-(5-(tert-Butyl)-2-methoxy-3-(methylsulfonamido)phenyl)-3-(2-((3-fluoro-5-(2-(2-(2-methoxyethoxy)ethoxy)ethoxy)phenyl)amino)quinazolin-6-yl)-4-methylbenzamide] reads 16.6 nM; that for `COc1cc(Nc2ncc3cc(-c4cc(C(=O)Nc5cc(C(C)(C)C)cc(NS(C)(=O)=O)c5OC)ccc4C)ccc3n2)cc(S(=O)(=O)N(C)CCCN2CCOCC2)c1` [14(e), N-(5-(tert-Butyl)-2-methoxy-3-(methylsulfonamido)phenyl)-3-(2-((3-methoxy-5-(N-methyl-N-(3-morpholinopropyl)sulfamoyl)phenyl)amino)quinazolin-6-yl)-4-methylbenzamide], 20.6 nM.
The result for `COc1cc(Nc2ncc3cc(-c4cc(C(=O)Nc5cc(C(C)(C)C)cc(NS(C)(=O)=O)c5OC)ccc4C)ccc3n2)ccc1C(=O)NCCN1CCN(CCO)CC1` [Example 13] reads 6.7 nM; that for `COc1cc(Nc2ncc3cc(-c4cc(C(=O)Nc5cc(C(C)(C)C)cc(NS(C)(=O)=O)c5OC)ccc4C)ccc3n2)ccc1C(=O)NCCC1CCN(C)CC1` [14(aa), 4-((6-(5-((5-(tert-Butyl)-2-methoxy-3-(methylsulfonamido)phenyl)carbamoyl)-2-methyl-phenyl)quinazolin-2-yl)amino)-2-methoxy-N-(2-(1-methylpiperidin-4-yl)ethyl)benzamide], 9.5 nM.
Take `COc1cc(Nc2ncc3cc(-c4cc(C(=O)Nc5cc(C(C)(C)C)cc(NS(C)(=O)=O)c5OC)ccc4C)ccc3n2)ccc1C(=O)NCCc1cccnc1` [14(ag), 4-((6-(5-((5-(tert-Butyl)-2-methoxy-3-(methylsulfonamido)phenyl)carbamoyl)-2-methylphenyl)quinazolin-2-yl)amino)-2-methoxy-N-(2-(pyridin-3-yl)ethyl)benzamide]: the IC50 is 11.6 nM.
With `COc1cc(Nc2ncc3cc(-c4cc(C(=O)Nc5cc(C(C)(C)C)cc(NS(C)(=O)=O)c5OC)ccc4C)ccc3n2)ccc1C(=O)NCCCN1CC[S+]([O-])CC1` [Example 11, 4-((6-(5-((5-(tert-Butyl)-2-methoxy-3-(methylsulfonamido)phenyl)carbamoyl)-2-methylphenyl)-quinazolin-2-yl)amino)-2-methoxy-N-(3-(1-oxidothiomorpholino)propyl)benzamide], the concentration for half-maximal inhibition (IC50) turned out to be 7.6 nM.
The value for `COc1cc(Nc2ncc3cc(-c4cc(C(=O)Nc5cc(C(C)(C)C)cc(NS(C)(=O)=O)c5OC)ccc4C)ccc3n2)ccc1C(=O)NCCN1CCN(C)CC1` [14(z), 4-((6-(5-((5-(tert-Butyl)-2-methoxy-3-(methylsulfonamido)phenyl)carbamoyl)-2-methyl-phenyl)quinazolin-2-yl)amino)-2-methoxy-N-(2-(4-methylpiperazin-1-yl)ethyl)benzamide] was 6 nM; that for `COCCOCCOCCOc1cc(Nc2ncc3cc(-c4cc(C(=O)Nc5cc(C(C)(C)C)cc(NS(C)(=O)=O)c5OC)ccc4C)ccc3n2)cc(OC(F)(F)F)c1` [14(r), N-(5-(tert-Butyl)-2-methoxy-3-(methylsulfonamido)phenyl)-3-(2-((3-(2-(2-(2-methoxy-ethoxy)ethoxy)ethoxy)-5-(trifluoromethoxy)phenyl)amino)quinazolin-6-yl)-4-methylbenzamide] was 49.1 nM; that for `COc1cc(Nc2ncc3cc(-c4cc(C(=O)Nc5cc(C(C)(C)C)cc(NS(C)(=O)=O)c5OC)ccc4C)ccc3n2)ccc1C(=O)NCC(CO)(CO)CO` [14(x), 4-((6-(5-((5-(tert-Butyl)-2-methoxy-3-(methylsulfonamido)phenyl)carbamoyl)-2-methylphenyl)quinazolin-2-yl)amino)-N-(3-hydroxy-2,2-bis(hydroxymethyl)propyl)-2-methoxybenzamide] was 7.7 nM.
The value for `COCCOCCOCCOc1cc(C#N)cc(Nc2ncc3cc(-c4cc(C(=O)Nc5cc(C(C)(C)C)cc(NS(C)(=O)=O)c5OC)ccc4C)ccc3n2)c1` [14(f), N-(5-(tert-Butyl)-2-methoxy-3-(methylsulfonamido)phenyl)-3-(2-((3-cyano-5-(2-(2-(2-methoxyethoxy)ethoxy)ethoxy)phenyl)amino)quinazolin-6-yl)-4-methylbenzamide] was 10.4 nM; that for `COc1cc(Nc2ncc3cc(-c4cc(C(=O)Nc5cc(C(C)(C)C)cc(NS(C)(=O)=O)c5OC)ccc4C)ccc3n2)cc(C(=O)O)c1` [14(o), 3-((6-(5-((5-(tert-Butyl)-2-methoxy-3-(methylsulfonamido)phenyl)carbamoyl)-2-methylphenyl)quinazolin-2-yl)amino)-5-methoxybenzoic acid] was 28.4 nM.
As to `COc1cc(Nc2ncc3cc(-c4cc(C(=O)Nc5cc(C(C)(C)C)cc(NS(C)(=O)=O)c5OC)ccc4C)ccc3n2)ccc1C(=O)NCCc1c[nH]cn1` [14(af), N-(2-(1H-Imidazol-4-yl)ethyl)-4-((6-(5-((5-(tert-butyl)-2-methoxy-3-(methylsulfonamido)-phenyl)carbamoyl)-2-methylphenyl)quinazolin-2-yl)amino)-2-methoxybenzamide], the IC50 came out at 13.2 nM.
Regarding `COc1c(NC(=O)c2ccc(C)c(-c3ccc4nc(Nc5ccc(OS(C)(=O)=O)cc5)ncc4c3)c2)cc(C(C)(C)C)cc1NS(C)(=O)=O` [14(j), 4-((6-(5-((5-(tert-Butyl)-2-methoxy-3-(methylsulfonamido)phenyl)carbamoyl)-2-methylphenyl)quinazolin-2-yl)amino)phenyl methanesulfonate], the IC50 was determined as 9.1 nM.
The result for `COc1cc(Nc2ncc3cc(-c4cc(C(=O)Nc5cc(C(C)(C)C)cc(NS(C)(=O)=O)c5OC)ccc4C)ccc3n2)ccc1C(=O)NCCOCCOCCO` [14(v), 4-((6-(5-((5-(tert-Butyl)-2-methoxy-3-(methylsulfonamido)phenyl)carbamoyl)-2-methylphenyl)quinazolin-2-yl)amino)-N-(2-(2-(2-hydroxyethoxy)ethoxy)ethyl)-2-methoxybenzamide] reads 4.4 nM.
The result for `COc1cc(Nc2ncc3cc(-c4cc(C(=O)Nc5cc(C(C)(C)C)cc(NS(C)(=O)=O)c5OC)ccc4C)ccc3n2)ccc1C(=O)NCCN1CCCC1` [14(ak), 4-((6-(5-((5-(tert-Butyl)-2-methoxy-3-(methylsulfonamido)phenyl)carbamoyl)-2-methylphenyl)quinazolin-2-yl)amino)-2-methoxy-N-(2-(pyrrolidin-1-yl)ethyl)benzamide] reads 14.8 nM.
With `COc1c(NC(=O)c2ccc(C)c(-c3ccc4nc(Nc5ccc(S(C)(=N)=O)cc5)ncc4c3)c2)cc(C(C)(C)C)cc1NS(C)(=O)=O` (centres unmarked) [14(t), N-(5-(tert-Butyl)-2-methoxy-3-(methylsulfonamido)phenyl)-4-methyl-3-(2-((4-(S-methylsulfonimidoyl)phenyl)amino)quinazolin-6-yl)benzamide], the IC50 turned out to be 67.6 nM.
For `COCCOCCOCCOc1cc(Nc2ncc3cc(-c4cc(C(=O)Nc5cc(C(C)(C)C)cc(NS(C)(=O)=O)c5OC)ccc4C)ccc3n2)cc(C(F)(F)F)c1` [14(s), N-(5-(tert-Butyl)-2-methoxy-3-(methylsulfonamido)phenyl)-3-(2-((3-(2-(2-(2-methoxyethoxy)ethoxy)ethoxy)-5-(trifluoromethyl)phenyl)amino)quinazolin-6-yl)-4-methylbenzamide], the IC50 came to 35.6 nM.
Consider `C#Cc1cc(Nc2ncc3cc(-c4cc(C(=O)Nc5cc(C(C)(C)C)cc(NS(C)(=O)=O)c5OC)ccc4C)ccc3n2)cc(OCCOCCOCCOC)c1` [14(k), N-(5-(tert-Butyl)-2-methoxy-3-(methylsulfonamido)phenyl)-3-(2-((3-ethynyl-5-(2-(2-(2-methoxyethoxy)ethoxy)ethoxy)phenyl)amino)quinazolin-6-yl)-4-methylbenzamide], for which the IC50 was 16.7 nM.
As to `COc1cc(Nc2ncc3cc(-c4cc(C(=O)Nc5cc(C(C)(C)C)cc(NS(C)(=O)=O)c5OC)ccc4C)ccc3n2)ccc1C(=O)NCCN1CCCOCC1` [14(y), N-(2-(1,4-Oxazepan-4-yl)ethyl)-4-((6-(5-((5-(tert-butyl)-2-methoxy-3-(methylsulfonamido)-phenyl)carbamoyl)-2-methylphenyl)quinazolin-2-yl)amino)-2-methoxybenzamide], the IC50 was 4.6 nM.
